Experimental data taken from US9522198B2, “Methods and compositions related to targeting tumors and wounds” (Sanford-Burnham Medical Research Institute, priority 2006, dated 2016).
Where two headings read alike, the source gives them in different places. Ends that are not written are not given here.

Test system: human umbilical venous endothelial cells (HUVECs)
Format: cell-based
Source text: CLT1 contains a sequence of three consecutive hydrophobic residues, LII (leucine-isoleucine-isoleucine). This motif is very similar to the VII sequence (V, valine) which causes proteins to form large insoluble aggregates (Esteras-Chopo et al. 2005). […] The ability of CLT1 to aggregate proteins correlates with its cytotoxicity for human umbilical venous endothelial cells (HUVECs).

CGLIIQKNEC (also: cyclic, ring type not given here, fluorescein conjugate, site not given here) [CLT1, cyclic decapeptide from phage library screened on plasma clots; tested as fluorescein conjugate]
cytotoxicity for endothelial cells (HUVECs): cytotoxic for endothelial cells | cell death (confluent HUVECs, 150 μg/ml): not in confluent HUVECs | cell death (proliferating HUVECs, 150 μg/ml in culture media, within 24 h): induced cell death
